{"source": "patent US6723531B2", "about": "“Method for modulating expression of exogenous genes in mammalian systems, and products related thereto” (The Salk Institute for Biological Studies, priority 1996, dated 2004)", "key": {"[1]": {"tested_on": "N13 cells (293 cells with VpEcR, RXR and ecdysone inducible reporter)", "assay": "X-gal staining of stable cell line N13", "format": "cell-based", "conditions": "24 hours of treatment with 1 μM muristerone; 3 hours of staining", "description": "Stable cell lines were generated containing the modified ecdysone receptor VpEcR, a heterodimeric partner (RXR), and an ecdysone inducible reporter (FIG. 2). 293 cells were transfected with the following linearized plasmids, pRC-ESHβ, EcREx5-ΔMTV-Luc, CMX-VpEcR, and CMX-hRXRa. The following day, the cells were split 1:10 and were allowed to recover one day prior to selection with 1 mg/ml G418 (GIBCO). After 14 days of selection, 14 individual clones were isolated and grown separately in the presence of 0.5 mg/ml G418.\nOne of these cell lines, N13, was grown in the presence or absence of 1 μM muristerone for 20 hours. Cell lysates were then assayed for β-galactosidase and luciferase activities as described in Example 1. X-gal staining was performed on the stable cell lines. Cells were fixed briefly with 10% formaldehyde in PBS and then stained with X-Gal (Molecular Probes, Eugene, Oreg.) for 2 to 6 hours. After 24 hours of treatment with 1 μM muristerone, 100% of the cells turned dark blue after 3 hours of staining. Thus, mammalian cells containing the modified ecdysone receptor VpEcR, a heterodimeric partner (RXR), and a reporter gene construct regulated by a modified ecdysone response element, function to efficiently express an exogenous gene in response to a ligand, e.g., ecdysone."}, "[2]": {"molecular_target": "T1, ecdysone receptor (EcR)/USP (Drosophila melanogaster, UniProt P34021)", "T1 construct": "expressed in transfected cells; host or cells: CV-1 cells", "T1 sequence (P34021 1-878)": "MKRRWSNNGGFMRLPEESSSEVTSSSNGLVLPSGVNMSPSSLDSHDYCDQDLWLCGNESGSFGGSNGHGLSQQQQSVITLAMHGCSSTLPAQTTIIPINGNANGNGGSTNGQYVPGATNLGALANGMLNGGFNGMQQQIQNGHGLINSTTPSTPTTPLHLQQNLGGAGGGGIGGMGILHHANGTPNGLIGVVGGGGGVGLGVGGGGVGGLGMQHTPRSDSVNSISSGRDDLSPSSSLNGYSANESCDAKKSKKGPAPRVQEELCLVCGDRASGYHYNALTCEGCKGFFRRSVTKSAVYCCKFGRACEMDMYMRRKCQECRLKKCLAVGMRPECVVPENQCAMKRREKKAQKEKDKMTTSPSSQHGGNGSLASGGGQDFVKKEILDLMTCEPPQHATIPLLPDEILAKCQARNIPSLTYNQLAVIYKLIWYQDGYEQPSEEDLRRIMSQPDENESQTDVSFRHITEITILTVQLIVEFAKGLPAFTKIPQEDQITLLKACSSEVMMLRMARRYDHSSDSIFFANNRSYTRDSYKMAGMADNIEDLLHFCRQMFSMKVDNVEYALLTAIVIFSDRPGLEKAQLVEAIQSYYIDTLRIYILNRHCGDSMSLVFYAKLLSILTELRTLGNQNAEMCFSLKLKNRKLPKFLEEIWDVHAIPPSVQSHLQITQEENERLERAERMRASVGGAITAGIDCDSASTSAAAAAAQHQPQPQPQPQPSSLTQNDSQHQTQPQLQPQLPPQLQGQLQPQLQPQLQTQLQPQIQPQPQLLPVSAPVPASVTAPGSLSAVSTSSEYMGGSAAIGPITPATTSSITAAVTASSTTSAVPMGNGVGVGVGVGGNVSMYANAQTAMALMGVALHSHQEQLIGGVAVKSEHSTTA", "T1 sequence (P20153 1-508 partner)": "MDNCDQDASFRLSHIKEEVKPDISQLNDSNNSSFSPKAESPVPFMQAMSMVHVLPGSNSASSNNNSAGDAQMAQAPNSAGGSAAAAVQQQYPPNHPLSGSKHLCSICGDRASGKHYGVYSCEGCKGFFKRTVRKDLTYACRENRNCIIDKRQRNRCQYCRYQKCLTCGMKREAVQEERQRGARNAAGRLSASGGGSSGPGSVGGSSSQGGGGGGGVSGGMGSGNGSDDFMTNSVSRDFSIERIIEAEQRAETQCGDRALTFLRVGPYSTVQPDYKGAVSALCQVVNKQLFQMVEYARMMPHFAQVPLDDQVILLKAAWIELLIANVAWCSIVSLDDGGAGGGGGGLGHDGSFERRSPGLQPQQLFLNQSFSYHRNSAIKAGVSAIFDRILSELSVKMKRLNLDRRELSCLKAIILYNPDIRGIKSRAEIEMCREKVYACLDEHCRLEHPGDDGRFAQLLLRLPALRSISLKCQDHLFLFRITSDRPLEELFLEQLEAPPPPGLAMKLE", "assay": "Transient transfection reporter assay in CV-1 cells, ecdysone receptor with USP", "format": "cell-based", "conditions": "1 μM muristerone A, unmodified ecdysone receptor", "description": "CV-1 cells were maintained in DMEM supplemented with 10%. Fetal Bovine Serum. Transient transfections were performed using DOTAP transfection reagent (Boehringer-Mannheim). Transfections using β-galactosidase as the reporter were assayed either by Galactolight luminescent assay (Tropix, Bedford, Mass.) or by standard liquid ONPG assay (Sigma, St. Louis, Mo.). The values were normalized by co-transfection of CMX-luciferase. Transfections using luciferase as the reporter were assayed by standard techniques using luciferin and ATP. These values were normalized by co-transfection of CMX-β-galactosidase. Hormone treated cells were treated with ethanol, 50 μM Juvenile Hormone III (Sigma), 1 μM muristerone A (Zambon, Bresso, IT), or 1 μM dexamethasone (Sigma) unless otherwise noted.\nTo maximize the sensitivity of the invention ecdysone inducible system, modifications of the ecdysone receptor were made. The N-terminal transactivation domain of the ecdysone receptor was replaced by the corresponding domain of the glucocorticoid receptor (GR), resulting in the modified ecdysone receptor GEcR (See FIG. 1D). CV-1 cells were transfected with the plasmid CMX-GEcR encoding the modified ecdysone receptor as discussed above. […]"}, "[3]": {"tested_on": "N13 cells (293 cells with VpEcR, RXR and ecdysone inducible reporter)", "assay": "Dose-response assay in N13 cells (β-galactosidase and luciferase reporters)", "format": "cell-based", "conditions": "36 hours", "description": "(§1) N13 cells were grown with varying concentrations of muristerone for 36 hours and then assayed for β-galactosidase activity (open squares) by standard ONPG assay or for luciferase activity (closed circles). […] N13 cells were grown in separate wells in the presence of 1 μM muristerone, harvested at varying times, and assayed for luciferase activity as described in Example 3.\nFIG. 5 compares the dose-dependent activation of N13 cells with muristerone (X) and ponasterone A (open circles).\nA dose-response assay was conducted by growing N13 cells with varying concentrations of muristerone for 36 hours and then assaying for β-galactosidase activity (using the well-known ONPG assay), or the cells were assayed for luciferase activity. […] One-hundred fold induction was achieved by muristerone concentrations as low as 100 nM (FIG. 3A).\nA dose-response assay was conducted as described in Example 3, by growing N13 cells with varying concentrations of muristerone or ponasterone A for 36 hours and then assaying for β-galactosidase activity (using the well-known ONPG assay), or the cells were assayed for luciferase activity."}, "adult mice": {"tested_on": "adult mice", "assay": "Toxicity study in adult mice", "format": "in vivo", "conditions": "intraperitoneal, 20 mg in sesame oil, observed approximately two months", "description": "In order to use muristerone as a potential hormone in mice, its toxicity and bioavailability was examined. For toxicity studies, adult mice were injected intraperitonealy with 20 mg of muristerone A suspended in sesame oil. The mice were then observed for approximately two months. […] In addition to the inert qualities of muristerone (an ecdysone), overexpression of VpEcR and RXR appears not to be toxic."}, "[4]": {"tested_on": "CV-1 cells transfected with CMX-GEcR, CMX-hRXRa, and EcREx5-DMTV-Luc", "assay": "Bioavailability study: serum of injected mice tested on transfected CV-1 cells", "format": "in vivo", "description": "For muristerone bioavailability studies, adult mice were injected intraperitoneally with sesame oil with or without […] of muristerone, and were subsequently sacrificed for serum collection. After twelve hours, blood was drawn from the mice, and the serum was isolated by brief centrifugation of the whole blood. In order to conduct transfection assays to test for muristerone activity, serum from sesame oil injected mice was divided, and half was supplemented with muristerone to a final concentration of 10 μM. The three batches of mouse serum were diluted 1:10 in DMEM and placed onto CV-1 cells transfected with CMX-GEcR, CMX-hRXRa, and EcREx5-DMTV-Luc."}, "[5]": {"tested_on": "N13 cells (293 cells with VpEcR, RXR and ecdysone inducible reporter)", "assay": "Kinetics of induction in N13 cells (luciferase activity)", "format": "cell-based", "conditions": "1 μM muristerone", "description": "as §1\nFinally, the kinetics of muristerone mediated induction was measured. N13 cells were grown in separate wells in the presence of 1 μM muristerone, harvested at varying times, and assayed for luciferase activity. Inductions of 100-fold in 3 hrs., 1000 fold in 8 hrs., and maximal effects of 20,000 fold after 20 hours of treatment were observed (FIG. 3B)."}, "pregnant mice": {"tested_on": "pregnant mice", "assay": "Teratogenic study in pregnant mice", "format": "in vivo", "conditions": "20 mg in sesame oil, mother and pups observed three months"}, "[6]": {"tested_on": "ecdysone inducible promoter (CD3-VpEcR; CD3-RXR; ESHβ)", "assay": "Northern blot of receptor/reporter double transgenic mice", "format": "in vivo", "conditions": "10 mg intraperitoneal, RNA 48 hours after treatment, thymus", "description": "To produce transgenic mice, the following DNA constructs were prepared and subsequently injected into fertilized eggs: CD3-VpEcR, CD3-RXR, ESHβ (Lee et al., J. Exp. Med. 175:1013-1025 (1992)). Two separate lines of transgenic mice were generated harboring either an ecdysone inducible reporter, ESHβ, or a T-cell specific expression construct of VpEcR and RXR, respectively. The former are referred to as reporter mice, the latter are referred to as receptor mice, and double transgenic mice are referred to as receptor/reporter mice. Constructs CD3-VpEcR and CD3-RXR were mixed and coinjected, while ESHB was injected alone. Primary genotyping was performed by Southern blot analysis and the transmission of transgenic mice was monitored by dot blot analysis. Receptor mice were analyzed for VpEcR and RXR expression by Northern blot analysis of RNA collected from these mice. For Northern blot analysis, 15 μg of total RNA obtained from the thymus, and various tissues as a control, was run on a denaturing gel and blotted onto a nitrocellulose membrane. The blot was probed with a radiolabeled β-gal-specific probe and exposed on film for 2 days. These receptor mice were healthy, fertile, and appeared normal by visual inspection. In addition, the transgene was transferred to the offspring as expected by Mendelian genetics. […]"}}, "note": "Entries after “also recorded” stand apart in the source; their conditions may differ."}
{"smiles": "CC(C)CC[C@@H](O)[C@](C)(O)[C@H]1CC[C@@]2(O)C3=CC(=O)[C@]4(O)C[C@@H](O)[C@@H](O)C[C@]4(C)[C@H]3[C@H](O)C[C@]12C", "note": "[muristerone A]", "values": [{"measurement": "cells turned dark blue (X-gal staining)", "setting": "[1]", "value": 100, "unit": "%"}, {"measurement": "muristerone responsiveness (fold induction)", "setting": "[2]", "value": 3, "unit": "fold"}, {"measurement": "fold induction", "setting": "[3]; concentrations as low as 100 nM", "value": "One-hundred"}, {"measurement": "inducibility of β-galactosidase and luciferase reporters", "setting": "[3]; final concentration 10 μM", "value": "~3 orders of magnitude"}, {"measurement": "toxicity", "setting": "adult mice", "value": "neither toxic"}, {"measurement": "luciferase activity of serum from treated mice", "setting": "[4]; intraperitoneal 10 μmg in sesame oil, serum after twelve hours, diluted 1:10 in DMEM", "value": "comparable to that seen from untreated mouse serum supplemented with 1 μM muristerone"}, {"measurement": "activity when injected into mice", "setting": "[4]; mice, intraperitoneal", "value": "maintains its activity"}, {"measurement": "inactivation or blunting of activity by serum proteins", "setting": "[4]; mouse serum", "value": "nor inactivated by serum binding proteins; also recorded: little or no blunting of activity"}, {"measurement": "induction of luciferase activity", "setting": "[5]; 3 hrs", "value": 100, "unit": "fold"}, {"measurement": "induction of luciferase activity", "setting": "[5]; 8 hrs", "value": 1000, "unit": "fold"}, {"measurement": "maximal induction of luciferase activity", "setting": "[5]; after 20 hours of treatment", "value": "20,000 fold"}, {"measurement": "teratogenicity", "setting": "pregnant mice", "value": "neither toxic, teratogenic"}, {"measurement": "induction from an ecdysone inducible promoter (Northern blot)", "setting": "[6]", "value": "significant induction"}]}
